From US20240101559A1, “TRICYCLIC KINASE INHIBITORS AND USES THEREOF” (DANA-FARBER CANCER INSTITUTE, INC., priority 2019, published 2024)

Experiments:
CDK11A = CDK11A (Homo sapiens (Human), UniProt Q9UQ88); test: Competition binding assay (kinase-tagged phage, qPCR); conditions: 11 serial threefold dilutions, read-out: inhibition on CDK11A, IC50
Procedure: Compounds of the present disclosure were analyzed with a competition binding assay with three components: a kinase-tagged phage, a compound of the present disclosure, and an immobilized ligand that the test compound competes with to displace the kinase. The amount of kinase bound to the immobilized ligand is determined using quantitative PCR of the DNA tag. Kd values (nM) reported for each compound were determined using 11 serial threefold dilutions of test compound and a DMSO control.

JAK2 = JAK2 (Homo sapiens (Human), UniProt O60674); test: JAK2 Z-Lyte biochemical assay; conditions: commercial JAK2 Z-Lyte assay from Invitrogen
Procedure: Example 3. JAK2 Z-Lyte Biochemical Assay of the Compounds of the Present Disclosure
The JAK2 Z-Lyte biochemical assay was performed according to manufacturer's instructions (Life Technologies).

CDK11/cycK = test: NanoBRET assay, CDK11/cycK; assay type: cell-based; conditions: live cells, read-out: inhibition of CDK11/cycK interaction
From the text: (§1) The NanoBRET™ assay (Promega Corporation) is a bioluminescence resonance energy transfer (BRET)-based assay that uses NanoLuc® Luciferase as the BRET energy donor and HaloTag® protein labeled with the HaloTag® NanoBRET™ 618 fluorescent Ligand as the energy acceptor to measure the interaction of two binding partners in live cells.

CDK11/CycL = test: NanoBRET assay, CDK11/CycL; assay type: cell-based; conditions: live cells, read-out: inhibition of CDK11/CycL interaction
From the text: as §1

[1] = Commercial microsome stability assay (half-life analysis); assay type: in vitro ADME; conditions: mouse liver microsomes; read-out: half-life in mouse liver microsomes (MLM)
PDGFRB = PDGFRB (Homo sapiens (Human), UniProt P09619); test: KINOMEscan kinase selectivity profiling; assay type: binding; conditions: read-out: Ambit KINOMEscan (percent control %)
From the text: (§2) Example 7. In Vitro Kinase Selectivity Profiling of the Compounds of the Present Disclosure

TAOK2 = TAOK2 (Homo sapiens (Human), UniProt Q9UL54); test: KINOMEscan kinase selectivity profiling; assay type: binding; conditions: TAOK2, 1 μM; read-out: Ambit KINOMEscan (percent control %)
From the text: as §2

KIT(L576P) = KIT(L576P) (Homo sapiens (Human), UniProt P10721, L576P); test: KINOMEscan kinase selectivity profiling; assay type: binding; conditions: read-out: Ambit KINOMEscan (percent control %)
From the text: as §2

DDR1 = DDR1 (Homo sapiens (Human), UniProt Q08345); test: KINOMEscan kinase selectivity profiling; assay type: binding; conditions: DDR1, 1 μM; read-out: Ambit KINOMEscan (percent control %)
From the text: as §2

CDC2L2 = CDC2L2 (Homo sapiens (Human), UniProt Q9UQ88); test: KINOMEscan kinase selectivity profiling; assay type: binding; conditions: CDC2L2, 1 μM; read-out: Ambit KINOMEscan (percent control %)
From the text: as §2

BRAF(V600E) = BRAF(V600E) (Homo sapiens (Human), UniProt P15056, V600E); test: KINOMEscan kinase selectivity profiling; assay type: binding; conditions: read-out: Ambit KINOMEscan (percent control %)
From the text: as §2

BRAF = BRAF (Homo sapiens (Human), UniProt P15056); test: KINOMEscan kinase selectivity profiling; assay type: binding; conditions: read-out: Ambit KINOMEscan (percent control %)
From the text: as §2

CSF1R = CSF1R (Homo sapiens (Human), UniProt P07333); test: KINOMEscan kinase selectivity profiling; assay type: binding; conditions: read-out: Ambit KINOMEscan (percent control %)
From the text: as §2

DDR2 = DDR2 (Homo sapiens (Human), UniProt Q16832); test: KINOMEscan kinase selectivity profiling; assay type: binding; conditions: DDR2, 1 μM; read-out: Ambit KINOMEscan (percent control %)
From the text: as §2

CDK11B = CDK11B (Homo sapiens (Human), UniProt P21127); test: KINOMEscan kinase selectivity profiling; assay type: binding; conditions: read-out: Ambit KINOMEscan (percent control %)
From the text: as §2

[2] = tested on: cell lines or patient-derived xenografts from patients with CRLF2-rearranged B-ALL; conditions: cited from earlier work

Sequence of JAK2 (O60674 whole entry): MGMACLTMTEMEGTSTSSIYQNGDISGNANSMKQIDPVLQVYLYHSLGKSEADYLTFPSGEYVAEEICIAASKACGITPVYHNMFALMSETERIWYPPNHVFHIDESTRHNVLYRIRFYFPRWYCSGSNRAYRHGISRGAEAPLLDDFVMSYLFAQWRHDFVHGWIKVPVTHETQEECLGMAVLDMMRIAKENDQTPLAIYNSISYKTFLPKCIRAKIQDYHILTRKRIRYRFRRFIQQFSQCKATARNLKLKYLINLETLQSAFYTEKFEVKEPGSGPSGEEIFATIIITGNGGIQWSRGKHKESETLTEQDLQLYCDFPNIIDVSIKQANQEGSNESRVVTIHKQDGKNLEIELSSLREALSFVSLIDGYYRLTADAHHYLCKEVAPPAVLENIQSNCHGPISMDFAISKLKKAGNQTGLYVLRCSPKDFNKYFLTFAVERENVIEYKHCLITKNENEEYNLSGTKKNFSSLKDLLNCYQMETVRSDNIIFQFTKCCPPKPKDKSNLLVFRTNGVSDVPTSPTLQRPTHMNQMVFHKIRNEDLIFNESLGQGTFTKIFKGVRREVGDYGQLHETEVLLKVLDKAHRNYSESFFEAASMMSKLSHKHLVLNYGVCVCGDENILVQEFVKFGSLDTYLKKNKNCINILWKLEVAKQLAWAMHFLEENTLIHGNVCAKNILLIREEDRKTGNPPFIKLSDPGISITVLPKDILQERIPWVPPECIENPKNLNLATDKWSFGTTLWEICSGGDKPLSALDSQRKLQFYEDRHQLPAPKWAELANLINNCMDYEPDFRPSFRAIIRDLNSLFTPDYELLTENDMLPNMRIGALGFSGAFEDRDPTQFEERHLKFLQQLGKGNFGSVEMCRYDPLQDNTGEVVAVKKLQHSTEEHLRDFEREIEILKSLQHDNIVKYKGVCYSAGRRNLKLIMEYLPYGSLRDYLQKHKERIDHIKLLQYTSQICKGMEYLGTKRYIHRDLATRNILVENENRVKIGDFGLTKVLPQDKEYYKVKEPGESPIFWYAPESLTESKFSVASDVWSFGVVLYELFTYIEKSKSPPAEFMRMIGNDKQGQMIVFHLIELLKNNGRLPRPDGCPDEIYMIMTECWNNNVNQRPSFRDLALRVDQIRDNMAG
Sequence of CDK11B (P21127 whole entry): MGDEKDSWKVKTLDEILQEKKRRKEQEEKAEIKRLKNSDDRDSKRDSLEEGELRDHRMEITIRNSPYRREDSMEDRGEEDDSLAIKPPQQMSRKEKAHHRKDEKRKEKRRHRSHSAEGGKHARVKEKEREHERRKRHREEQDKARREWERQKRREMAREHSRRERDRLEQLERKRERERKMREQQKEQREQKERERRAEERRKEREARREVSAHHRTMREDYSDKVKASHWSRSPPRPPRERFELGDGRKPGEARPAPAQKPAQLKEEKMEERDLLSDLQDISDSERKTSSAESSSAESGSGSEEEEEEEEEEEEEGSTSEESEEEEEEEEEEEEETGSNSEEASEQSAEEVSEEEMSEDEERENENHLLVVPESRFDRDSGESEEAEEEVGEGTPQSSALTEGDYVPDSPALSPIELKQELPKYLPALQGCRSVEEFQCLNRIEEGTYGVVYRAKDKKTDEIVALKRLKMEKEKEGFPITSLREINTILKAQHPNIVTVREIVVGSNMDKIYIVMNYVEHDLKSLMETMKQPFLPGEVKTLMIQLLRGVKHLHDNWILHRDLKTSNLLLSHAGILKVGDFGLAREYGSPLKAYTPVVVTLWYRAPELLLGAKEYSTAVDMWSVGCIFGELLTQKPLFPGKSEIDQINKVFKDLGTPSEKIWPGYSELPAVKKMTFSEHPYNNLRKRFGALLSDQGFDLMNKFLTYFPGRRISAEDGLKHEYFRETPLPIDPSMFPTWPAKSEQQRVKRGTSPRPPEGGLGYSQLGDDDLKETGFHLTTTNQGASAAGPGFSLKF
Sequence of BRAF(V600E) (P15056 whole entry V600E): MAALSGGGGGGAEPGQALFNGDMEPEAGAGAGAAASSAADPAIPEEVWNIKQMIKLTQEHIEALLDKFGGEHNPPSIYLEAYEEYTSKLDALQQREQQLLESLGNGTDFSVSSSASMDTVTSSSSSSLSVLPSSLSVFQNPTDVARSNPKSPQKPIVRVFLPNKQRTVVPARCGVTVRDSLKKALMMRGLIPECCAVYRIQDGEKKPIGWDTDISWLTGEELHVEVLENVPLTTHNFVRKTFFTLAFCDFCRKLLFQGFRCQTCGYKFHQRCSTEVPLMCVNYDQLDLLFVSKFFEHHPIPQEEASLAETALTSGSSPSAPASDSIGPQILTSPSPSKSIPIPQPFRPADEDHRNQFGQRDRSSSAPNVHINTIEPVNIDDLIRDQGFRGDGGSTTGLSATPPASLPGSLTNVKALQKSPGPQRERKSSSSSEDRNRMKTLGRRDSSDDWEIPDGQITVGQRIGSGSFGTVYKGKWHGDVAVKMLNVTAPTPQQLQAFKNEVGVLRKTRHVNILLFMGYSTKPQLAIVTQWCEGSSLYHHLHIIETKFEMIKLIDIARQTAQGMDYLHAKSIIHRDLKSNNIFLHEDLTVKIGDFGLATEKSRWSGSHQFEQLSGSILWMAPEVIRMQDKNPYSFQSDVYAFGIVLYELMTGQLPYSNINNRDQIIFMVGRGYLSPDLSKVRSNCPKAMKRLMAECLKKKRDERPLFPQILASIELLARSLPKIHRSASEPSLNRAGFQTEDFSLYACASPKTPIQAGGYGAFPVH
Sequence of DDR1 (Q08345 19-913): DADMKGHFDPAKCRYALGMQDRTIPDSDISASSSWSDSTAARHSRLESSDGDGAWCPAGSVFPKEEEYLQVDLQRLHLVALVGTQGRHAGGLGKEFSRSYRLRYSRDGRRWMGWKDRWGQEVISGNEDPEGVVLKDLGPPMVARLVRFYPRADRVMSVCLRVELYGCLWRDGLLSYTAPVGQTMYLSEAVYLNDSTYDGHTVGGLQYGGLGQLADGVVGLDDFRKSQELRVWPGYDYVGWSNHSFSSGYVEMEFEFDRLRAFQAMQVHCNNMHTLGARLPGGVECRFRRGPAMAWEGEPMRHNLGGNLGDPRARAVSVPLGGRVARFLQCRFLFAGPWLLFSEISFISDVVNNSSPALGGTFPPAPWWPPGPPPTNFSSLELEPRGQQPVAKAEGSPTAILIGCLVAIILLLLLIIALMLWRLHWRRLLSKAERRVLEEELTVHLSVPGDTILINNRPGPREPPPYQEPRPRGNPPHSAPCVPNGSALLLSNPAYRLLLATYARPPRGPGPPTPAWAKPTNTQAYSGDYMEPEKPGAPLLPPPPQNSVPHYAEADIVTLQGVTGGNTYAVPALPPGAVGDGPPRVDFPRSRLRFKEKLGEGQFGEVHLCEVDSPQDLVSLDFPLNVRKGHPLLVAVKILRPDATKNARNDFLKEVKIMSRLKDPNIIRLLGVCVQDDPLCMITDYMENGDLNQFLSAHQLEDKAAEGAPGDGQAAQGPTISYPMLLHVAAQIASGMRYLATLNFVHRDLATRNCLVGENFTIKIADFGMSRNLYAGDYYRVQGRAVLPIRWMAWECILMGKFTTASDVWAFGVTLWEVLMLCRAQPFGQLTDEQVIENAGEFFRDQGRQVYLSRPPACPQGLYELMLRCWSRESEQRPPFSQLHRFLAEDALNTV
Sequence of CSF1R (P07333 20-972): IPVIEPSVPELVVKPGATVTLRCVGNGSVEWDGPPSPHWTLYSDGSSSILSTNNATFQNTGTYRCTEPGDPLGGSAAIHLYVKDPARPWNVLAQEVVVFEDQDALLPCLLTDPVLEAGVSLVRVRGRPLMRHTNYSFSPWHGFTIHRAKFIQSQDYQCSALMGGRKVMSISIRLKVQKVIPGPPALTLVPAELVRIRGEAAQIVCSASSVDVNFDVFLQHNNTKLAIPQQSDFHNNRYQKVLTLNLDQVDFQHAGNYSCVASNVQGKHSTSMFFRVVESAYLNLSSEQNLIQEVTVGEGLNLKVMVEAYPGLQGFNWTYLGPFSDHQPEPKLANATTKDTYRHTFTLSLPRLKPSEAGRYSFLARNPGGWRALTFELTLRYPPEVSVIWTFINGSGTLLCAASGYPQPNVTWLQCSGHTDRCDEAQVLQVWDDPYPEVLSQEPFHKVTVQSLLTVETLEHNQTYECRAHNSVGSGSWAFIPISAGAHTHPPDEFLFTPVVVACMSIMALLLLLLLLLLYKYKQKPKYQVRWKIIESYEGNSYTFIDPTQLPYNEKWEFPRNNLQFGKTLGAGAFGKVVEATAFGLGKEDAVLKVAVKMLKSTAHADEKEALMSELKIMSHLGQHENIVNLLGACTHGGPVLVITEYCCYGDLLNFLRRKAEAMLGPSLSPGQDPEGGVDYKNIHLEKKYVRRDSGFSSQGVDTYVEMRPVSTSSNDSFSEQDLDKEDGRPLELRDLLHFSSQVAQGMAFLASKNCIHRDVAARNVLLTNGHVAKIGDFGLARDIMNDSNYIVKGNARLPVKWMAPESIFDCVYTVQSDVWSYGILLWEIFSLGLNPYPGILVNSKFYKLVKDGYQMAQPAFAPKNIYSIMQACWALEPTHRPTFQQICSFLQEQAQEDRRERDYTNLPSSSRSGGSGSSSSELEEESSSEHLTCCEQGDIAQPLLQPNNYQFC
Sequence of BRAF (P15056 whole entry): as the sequence (P15056 whole entry V600E) above, with E600V counted along it

CCN1CCN(Cc2ccc(Nc3nc4ccc(Oc5ccnc(NC(C)=O)c5)c5c4n3CCC5)cc2C(F)(F)F)CC1 [Compound I-1, N-(4-((2-((4-((4-ethylpiperazin-1-yl)methyl)-3-(trifluoromethyl)phenyl)amino)-5,6-dihydro-4H-imidazo [4,5,1-ij]quinolin-7-yl)oxy)pyridin-2-yl) acetamide]
IC50 (CDK11A): 30 nM
IC50 (JAK2): 820 nM
IC50 (CDK11/cycK): 278 nM
IC50 (CDK11/CycL): 290 nM
half-life [1]: 16.7 min
remaining binding at 1 µM (PDGFRB): 0.1%
remaining binding at 1 µM (TAOK2): 0.3%
remaining binding at 1 µM (KIT(L576P)): 0.2%
remaining binding at 1 µM (DDR1): 0%
remaining binding at 1 µM (CDC2L2): 1%
remaining binding at 1 µM (BRAF(V600E)): 2%
remaining binding at 1 µM (BRAF): 5.5%
remaining binding at 1 µM (CSF1R): 0.75%
remaining binding at 1 µM (DDR2): 0%
remaining binding at 1 µM (CDK11B): 1.3%

CC(=O)Nc1cc(Oc2ccc3nc(Nc4ccc(Cl)c(C(F)(F)F)c4)n4c3c2CCC4)ccn1 [Compound I-3, N-(4-((2-((4-chloro-3-(trifluoromethyl)phenyl)amino)-5,6-dihydro-4H-imidazo[4,5,1-ij]quinolin-7-yl)oxy)pyridin-2-yl)acetamide]
IC50 (JAK2): > 10000 nM

CCN1CCN(Cc2cc(Nc3nc4ccc(Oc5ccnc(NC(C)=O)c5)c5c4n3CCC5)cc(C(F)(F)F)c2)CC1 [Compound I-4, N-(4-((2-((3-((4-ethylpiperazin-1-yl)methyl)-5-(trifluoromethyl)phenyl)amino)-5,6-dihydro-4H-imidazo[4,5,1-ij]quinolin-7-yl)oxy)pyridin-2-yl)acetamide]
IC50 (JAK2): 1810 nM

CC(=O)Nc1cc(Oc2ccc3nc(Nc4ccc(CN5CCN(C)CC5)cc4)n4c3c2CCC4)ccn1 [Compound I-5, N-(4-((2-((4-((4-methylpiperazin-1-yl)methyl)phenyl)amino)-5,6-dihydro-4H-imidazo[4,5,1-ij]quinolin-7-yl)oxy)pyridin-2-yl)acetamide]
IC50 (JAK2): 5940 nM

CC(=O)Nc1cc(Oc2ccc3nc(Nc4ccc(F)cc4F)n4c3c2CCC4)ccn1 [Compound I-6, N-(4-((2-((2,4-difluorophenyl)amino)-5,6-dihydro-4H-imidazo[4,5,1-ij]quinolin-7-yl)oxy)pyridin-2-yl)acetamide]
IC50 (JAK2): 1820 nM

CC(=O)Nc1cc(Oc2ccc3nc(Nc4cc(-n5cnc(C)c5)cc(C(F)(F)F)c4)n4c3c2CCC4)ccn1 [Compound I-7, N-(4-((2-((3-(4-methyl-1H-imidazol-1-yl)-5-(trifluoromethyl)phenyl)amino)-5,6-dihydro-4H-imidazo[4,5,1-ij]quinolin-7-yl)oxy)pyridin-2-yl)acetamide]
IC50 (JAK2): 4560 nM

CC(=O)Nc1cc(Oc2ccc3nc(Nc4cc(N5CCN(C)CC5)cc(C(F)(F)F)c4)n4c3c2CCC4)ccn1 [Compound I-8, N-(4-((2-((3-(4-methylpiperazin-1-yl)-5-(trifluoromethyl)phenyl)amino)-5,6-dihydro-4H-imidazo[4,5,1-ij]quinolin-7-yl)oxy)pyridin-2-yl)acetamide]
IC50 (JAK2): 9930 nM

CC(=O)Nc1cc(Oc2ccc3nc(Nc4ccc(CN5CCC(N(C)C)C5)c(C(F)(F)F)c4)n4c3c2CCC4)ccn1 (stereo not shown) [Compound I-9, N-(4-((2-((4-((3-(dimethylamino)pyrrolidin-1-yl)methyl)-3-(trifluoromethyl)phenyl)amino)-5,6-dihydro-4H-imidazo[4,5,1-ij]quinolin-7-yl)oxy)pyridin-2-yl)acetamide]
IC50 (JAK2): 1770 nM

CC(=O)Nc1cc(Oc2ccc3nc(Nc4cc(C(C)(C)C)nn4-c4ccc(C)cc4)n4c3c2CCC4)ccn1 [Compound I-10, N-(4-((2-((3-(tert-butyl)-1-(p-tolyl)-1H-pyrazol-5-yl)amino)-5,6-dihydro-4H-imidazo[4,5,1-ij]quinolin-7-yl)oxy)pyridin-2-yl)acetamide]
IC50 (JAK2): > 10000 nM

CC(=O)Nc1cc(Oc2ccc3nc(Nc4ccc(OC5CCN(C)CC5)c(C(F)(F)F)c4)n4c3c2CCC4)ccn1 [Compound I-11, N-(4-((2-((4-((1-methylpiperidin-4-yl)oxy)-3-(trifluoromethyl)phenyl)amino)-5,6-dihydro-4H-imidazo[4,5,1-ij]quinolin-7-yl)oxy)pyridin-2-yl)acetamide]
IC50 (JAK2): 3680 nM

N#CC[C@H](C1CCCC1)n1cc(-c2ncnc3[nH]ccc23)cn1 [Ruxolitinib]
IC50 [2]: > 20000 nM
